In US5266561A, “Treatment of type 2 diabetes mellitus” (Amylin Pharmaceuticals, Inc., priority 1991, dated 1993):
Where no end group is shown, it is not given here.

How the values were obtained:
[1] = molecular target: T1, insulin receptor on red blood cells; assay: Displacement of insulin from its receptor on red blood cells; format: binding
T1 construct: endogenous in cells; host or cells: red blood cells

rat islet cells [2] = assay: Glucose-stimulated insulin secretion from isolated rat islets of Langerhans; format: cell-based; conditions: glucose 10 mmol/L; for RELATIVE INSULIN SECRETION INHIBITION: reduction from control
Method: All experiments were performed by known methods used in experimental practice. See, e.g., Lacey P E, and Kostianovsky M, Method for the isolation of intact islets of Langerhans from the rat Dancreas. Diabetes 1967; 16:35-39.
Briefly, rats were killed, and islets of Langerhans were isolated from their pancreases. Experiments were performed either with freshly isolated islets or after overnight incubation of islets (23 h) in standard culture medium and conditions at 37° C. […] Incubation of islets for these experiments was carried out in standard Krebs-Heinsleit buffer, and it was verified that the addition of the 1.0 mmol/L citrate buffer had no effect on the pH of the incubation medium. Stimulation of islets was carried out at the standard stimulatory glucose concentration of 10 mmol/L.
Production of insulin is expressed as μU/islet/h. All experiments were performed with five replicates per point. The integrity of the islet response was assessed by comparing the responses after stimulation of different aliquots of islets by two and ten mmol/L glucose, respectively, and the strength of the inhibitory response was judged against that induced by 1 μg/ml (650 nmol/L) somatostatin. […] See Arimura A. Biomed res 1981; 2:233-257. […] See Petterson M, Ahren B, Bottcher G, Sundler F, Endocrinology 1986; 119:865-869.
The results are shown in TABLE 5 below and all results are expressed as ± standard error of the mean (s.e.m.). The significance of differences between the means of groups is assessed by the t-test. The result of stimulation by 10 mmol/L glucose is compared with the results of stimulation at 2 mmol/L glucose. In all other experimental conditions, the significance of the inhibitory effect is measured against the effect of 10 mmol/L glucose alone.

rat islet cells [3] = conditions: literature statement; cited from earlier work

Q: With “amylin: 37-residue peptide from pancreatic amyloid of Type 2 diabetics; source (synthetic or native) not stated at these places (KCNTATCATQRLANFLVHSSNNFGAILSSTNVGSNTY; Islet amyloid polypeptide; UniProt P10997 34-70, looked up)” as the compound, how does the “displacing insulin from its receptor on red blood cells” value [1] read?
A: not capable of significantly displacing insulin

Q: What does the source list for `C[C@H](N)C(=O)NCC(=O)N[C@H]1CSSC[C@@H](C(=O)O)NC(=O)[C@H](CO)NC(=O)[C@H]([C@@H](C)O)NC(=O)[C@H](Cc2ccccc2)NC(=O)[C@H]([C@@H](C)O)NC(=O)[C@H](CCCCN)NC(=O)[C@H](Cc2c[nH]c3ccccc23)NC(=O)[C@H](Cc2ccccc2)NC(=O)[C@H](Cc2ccccc2)NC(=O)[C@H](CC(N)=O)NC(=O)[C@H](CCCCN)NC1=O` [Somatostatin, reference compound]?
A: INSULIN PRODUCTION Mean value (rat islet cells [2]; 650 nmol/L): 44 μU/islet/hr; RELATIVE INSULIN SECRETION INHIBITION (rat islet cells [2]; 650 nmol/L): 45%; inhibition of the insulin secretory response of islet B-cells to glucose (rat islet cells [3]): known, potent inhibitor

Q: With “CGRP 27-37 (FVPTNVGSKAF; ends and bridges not checked; UniProt P06881 109-119, looked up, fragment)” as the compound, how does the “INSULIN PRODUCTION Mean value” (rat islet cells [2]; 10 nmol/L) read?
A: 36 μU/islet/hr

Q: What about the “RELATIVE INSULIN SECRETION INHIBITION” value (rat islet cells [2]; 10 nmol/L) of the same compound?
A: 55%

Q: And the “INSULIN PRODUCTION Mean value” (rat islet cells [2]; 100 nmol/L)?
A: 36 μU/islet/hr

Q: And the “RELATIVE INSULIN SECRETION INHIBITION” value (rat islet cells [2]; 100 nmol/L)?
A: 55%

Q: And the “INSULIN PRODUCTION Mean value” (rat islet cells [2]; 1000 nmol/L)?
A: 46 μU/islet/hr

Q: What about the “RELATIVE INSULIN SECRETION INHIBITION” value (rat islet cells [2]; 1000 nmol/L) of the same compound?
A: 42%
